Columns and labels:
[1] = tested on: human influenza A virus NWS/33, H1N1; format: cell-based
[2] = tested on: virus-specific receptors located on red blood cells; set-up: species or system human; settings: red blood cells used for the haemagglutination assay
[3] = tested on: human influenza A virus NWS/33, H1N1; format: cell-based; remark: listed apart in the source
[4] = tested on: human influenza A virus NWS/33, H1N1; format: cell-based; remark: listed apart in the source
[5] = tested on: viral haemagglutinin HA antigen on the cellular surface of infected LLC-MK2 cells; format: cell-based, influenza A virus; settings: 24 and 48 hours post infection; treated versus untreated infected LLC-MK2 cells
[6] = tested on: virus-induced polypeptides of A/NWS/33 in LLC-MK2 cells; format: cell-based, influenza A virus; settings: MESNA 20 mg/ml, effect particularly evident at 1, 2, 5, 1.0, 15 mg/ml
[7] = tested on: avian influenza A virus Ulster/73, H7N1; format: cell-based; settings: A/Ulster/73, H7N1 strain

SMILES	virus production (haemagglutination, presence/absence of mature viral particles) [1]	interference with virus-specific receptors on red blood cells [2]	time of addition up to which MESNA is effective [3] [hours post infection]	reversibility of inhibition of the production of viral particles [4]	haemagglutinin molecules on the surface of infected cells (haemadsorption values) [5]	synthesis of virus-induced polypeptides (early and late viral proteins) [6]	results with avian strain compared with human influenza virus A/NWS/33 [7]	antiviral action in comparison studies (all experiments repeated) [1]
O=S(=O)([O-])CCS.[Na+] [MESNA, Sodium 2-mercaptoethanesulfonate]	able to suppress virus production	did not interfere	≤ 6	irreversible inhibition	great reduction, if not the absence	marked reduction	completely reproducible and absolutely comparable	
O=C([O-])CN(CCN(CC(=O)[O-])CC(=O)[O-])CC(=O)[O-].[Na+].[Na+].[Na+].[Na+] [sodium edetate]								not able to exert an antiviral action

— patent publication US20060189688A1 (priority 2003, published 2006)
